Results on two molecules are retold here after US11319305B2, “Pyrimidine sulfamide derivative and preparation method and medical application thereof” (SHIJIAZHUANG SAGACITY NEW DRUG DEVELOPMENT CO., LTD., priority 2017, dated 2022).

Series [1] in a line: Pharmacokinetics in SD rats. Format: in vivo. To be noted: male, Sprague-Dawley, rat, plasma; for half-life / clearance: intravenous injection 2 mg/kg; for clearance: iv, 2 mg/kg, read-out: Plasma clearance rate. The text has this:
Experimental Embodiment 6: Evaluation on the Pharmacokinetic of the Compounds in Rats
SD male rats were selected as the test animals in this study, and the drug concentration in plasma of the rats at different time points via intravenous injection or oral gastric administration of the test compound was quantitatively measured using LC/MS/MS method to evaluate the pharmacokinetic characteristics of the test compounds in rats.
Sprague Dawley (SD) rats (male, 200-300 g, 7-10 weeks old, Beijing Viton Lihua or Shanghai Slake).
A clear solution of the test compound was injected into SD rats via the tail vein (overnight fasting), or administrated orally by gavage (overnight fasting). For intravenous administration, 200 μL of jugular blood was collected via vein puncture at 0 hour (pre-dosing) and at 0.0833, 0.25, 0.5, 1, 2, 4, 6, 8 and 24 hours after dosing, which was then placed in an anticoagulation tube supplemented with EDTA-K2 (Suzuki Healthcare Medical Co., Ltd.). The mixture in the anticoagulation tube was vortexed to mix thoroughly at 4° C., and then centrifuged at 13000 rpm for 10 minutes to collect the plasma. For oral gavage administration, 200 μL of jugular blood was collected via vein puncture at 0 hour (pre-dosing) and at 0.5, 1, 2, 4, 6, 8 and 24 hours after dosing, which was then placed in an anticoagulation tube supplemented with EDTA-K2 (Suzuki Healthcare Medical Co., Ltd.). The mixture in the anticoagulation tube was vortexed to mix thoroughly, and then centrifuged at 13000 rpm for 10 minutes to collect the plasma. Plasma drug concentration was measured by LC/MS/MS method, and related pharmacokinetic parameters were calculated using WinNonlin™ Version 6.3 (Pharsight, Paul View, Calif.) pharmacokinetics software in non-room model linear logarithmic trapezoids method.

Series [2] in a line: Pharmacokinetics in beagle dogs. In kind it is in vivo. The text has this: Experimental embodiment 7: Evaluation on the pharmacokinetic of compounds in beagle dogs
Male beagle dogs were selected as the tested animals in this study, and the drug concentration in plasma of beagle dogs at different time points via intravenous injection or oral perfusion gastric administration of the test compounds was quantitatively measured using LC/MS/MS method to evaluate the pharmacokinetic characteristics of the test compounds in beagle dogs.
Beagle dog (male, 6-15 kg, more than 6 months old, Beijing Marshall Biotechnology Co., Ltd.).
A clear solution of the test compound was injected intravenously into beagle dogs (overnight fasting), or administrated orally to beagle dogs by gavage (overnight fasting). For intravenous administration, 500 μL of blood was collected from peripheral vessels at 0 hour (pre-dosing) and at 0.0833, 0.25, 0.5, 1, 2, 4, 6, 8 and 24 hours after dosing, which was then placed in an anticoagulation tube supplemented with EDTA-K2 (Suzuki Healthcare Medical Co., Ltd.). For oral gastric administration, 500 μL of blood was collected from peripheral vessels at 0 hour (pre-dosing) and at 0.25, 0.5, 1, 2, 4, 6, 8 and 24 hours after dosing, which was then placed in an anticoagulation tube supplemented with EDTA-K2. The mixture in the anticoagulation tube was vortexed to mix thoroughly, and then centrifuged at 13000 rpm for 10 minutes to collect the plasma. Plasma drug concentration was measured by LC/MS/MS method, and related pharmacokinetic parameters were calculated using WinNonlin™ Version 6.3 (Pharsight, Paul View, Calif.) pharmacokinetics software in non-room model linear logarithmic trapezoids method.

The next series deals with T1, human ETA receptor (Homo sapiens, UniProt P25101).
T1 construct: endogenously expressed human ETA receptors in SK-N-MC cells; host or cells: SK-N-MC cells
T1 sequence (P25101 21-427): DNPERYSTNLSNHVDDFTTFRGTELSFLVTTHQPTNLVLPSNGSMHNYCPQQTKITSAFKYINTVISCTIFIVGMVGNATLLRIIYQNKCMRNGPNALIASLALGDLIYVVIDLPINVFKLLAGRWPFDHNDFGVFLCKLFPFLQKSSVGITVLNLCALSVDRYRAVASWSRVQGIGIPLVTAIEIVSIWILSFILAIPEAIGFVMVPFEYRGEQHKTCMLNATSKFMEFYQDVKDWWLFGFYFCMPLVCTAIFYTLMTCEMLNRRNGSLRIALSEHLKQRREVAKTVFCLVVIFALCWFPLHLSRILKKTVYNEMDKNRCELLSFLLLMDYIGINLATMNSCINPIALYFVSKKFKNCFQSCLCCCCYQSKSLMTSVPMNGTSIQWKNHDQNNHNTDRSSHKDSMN
The series can be described thus: In vitro antagonistic effect against human ETA receptor, Ca2+ signal in SK-N-MC cells. In kind it is cell-based. To be noted: for IC50: SK-N-MC cells, response to 1 nM endothelin-1; for ETA/ETB selectivity: ratio of ETB IC50 to ETA IC50. As for the experimental part: Experimental Embodiment 1: In Vitro Test of Antagonistic Effect Against Human ETA Receptor
Antagonistic activity of the compounds against endogenously expressed human ETA receptors in SK-N-MC cells was evaluated by measuring the effect of compounds on the changes in cytoplasmic Ca^2+ ion signal induced by human ETA receptor agonists using fluorescence detection methods. The functional activity of the ETA receptor antagonistic effect was tested in Eurofins-Cerep SA according to current standard procedures.
1. Cells were suspended in Dulbecco's modified Eagle medium solution (DMEM, Invitrogen) supplemented with 1% FCSd, then distributed in 384-well plate (100 μL/well) at a density of 5×10^4 cells/well;
2. Probenecid in Hank's balanced salt solution (HBSS, Invitrogen) supplemented with 20 mM 4-(2-hydroxyethyl)piperazine-1-ethanesulfonic acid (Hepes, Invitrogen) (pH 7.4) was mixed with fluorescent probe (Fluo4 NW, Invitrogen), the mixture was added to each wells, then balanced with cells at 37° C. for 60 minutes, and then balanced with cells at 22° C. for 15 minutes;
3. The test plate was placed in a microplate reader (CellLux, PerkinElmer), a DMSO solution or HBSS buffer with an appropriate concentration of the test compound and the positive control was added, and 1 nM endothelin-1 or HBSS buffer (base control) was added after 5 minutes, and then the change in fluorescence intensity proportional to the concentration of Ca^2+ ions of free […] was measured;
5. Standard positive control was BQ-123, several concentrations were tested in each experiments. The data was analyzed using Prism to generate a concentration-response curve, and IC50 values of the compounds were calculated.

[3] abbreviates: male, dog, plasma, intravenous injection 1 mg/kg.

SMILES strings stand for the structures.

On to `NS(=O)(=O)Nc1ncnc(OCCOc2ncc(Br)cn2)c1-c1ccc2c(c1)OCO2` [WX001], for which, in series [1], the half-life – broadly, the time in which the quantity being followed falls by half – is 1.26 h and the clearance (as a rule, a measure of how efficiently the substance is removed, as volume per time) was less than 5 mL/min/kg. Moreover, the “The area under the plasma concentration time curve” value (“The area” below) in series [2] (intravenous injection 1 mg/kg) is 46.94 µM·h. In addition, the bioavailability – broadly, dose-corrected exposure relative to a reference, in per cent – in series [2] (male, beagle, dog, plasma, po, 3 mg/kg, oral administration 3 mg/kg, read-out: Bioavailability F) is more than 50%. Moreover, the half-life in series [2] (setting [3]) is 2.31 h. In series [2] (oral administration 3 mg/kg), the Peak concentration was determined as 16.20 µM, the Peak time amounted to 0.38 h and the “The area” value worked out at 73.77 µM·h. Further, the “Bioavailability F” value in series [2] (oral administration 3 mg/kg, 3 mg/kg) is 52.4%. Moreover, at human ETA receptor, half-maximal inhibition (IC50) was put at 2.8 nM and the ETA/ETB selectivity was 30300.

For the molecule `COCCNS(=O)(=O)Nc1ncnc(OCCOc2ncc(Br)cn2)c1-c1ccc2c(c1)OCO2` [WX013], in series [1], the half-life is 1.14 h and the clearance was less than 5 mL/min/kg. The bioavailability in series [1] (po, 10 mg/kg, oral administration 10 mg/kg) is more than 70%. The “The area” value in series [2] (intravenous injection 1 mg/kg) turned out to be 7.56 µM·h. Besides, the Plasma clearance rate in series [2] (intravenous injection 1 mg/kg, 1 mg/kg) is recorded as 4.79 mL/min/kg. For the same molecule, the clearance in series [2] (male, beagle, dog, plasma, iv, 1 mg/kg, intravenous injection 1 mg/kg, read-out: Plasma clearance rate) is less than 5 mL/min/kg. In series [2] (setting [3]), this molecule gave a half-life of 0.86 h. In addition, in series [2] (oral administration 3 mg/kg), the Peak concentration was 12.75 µM, the Peak time is 0.38 h and the “The area” value amounted to 33.40 µM·h. In addition, on human ETA receptor, the IC50 – broadly, the concentration that inhibits the measured activity by half – is 1.4 nM and the ETA/ETB selectivity was found to be 47100.
